According to patent US20180168208A1 (priority 2014, published 2018):
Read-outs that look alike come from different tables or passages of the source.

Biological target: T1R1/T1R3 receptor (Felis catus, UniProt E3UMS2)
Assay: cell-based
Type: cell-based
Description: HEK293 cells that stably express T1R3 and inducibly express T1R1 were exposed to transmembrane compounds alone or in combination with one or more amino acids and/or one or more nucleotides to activate the umami receptor. Activation of the T1R1/T1R3 receptor was detected by a change in intracellular calcium levels using a calcium sensitive fluorescent dye. Cells that express T1R3 but not T1R1 were used as a control. A FLIPR® Tetra or a FlexStation® 3 was used for data capture.
In each experiment, serial dilutions of up to 10 mM of the transmembrane compound were added to the T1R1/T1R3-expressing cells.

[1] = + Alanine, Table 17, read-out: EC50 + Alanine
[2] = +Alanine (20 mM), Table 18, read-out: EC50 +Alanine
[3] = EC50 + IMP, + IMP (0.2 mM), Table 17
[4] = EC50 +Alanine + IMP, +Alanine (20 mM) + IMP (0.2 mM), Table 18
[5] = EC50 +IMP, +IMP (0.2 mM), Table 18
[6] = compound alone in buffer, Table 17, read-out: EC50 + buffer (alone)
[7] = compound alone in buffer, Table 18, read-out: EC50 +buffer (alone)

Structure (SMILES) | Thres +Alanine (+ Alanine (20 nM), Table 17) [mM] | Max resp % of IMP + Alanine (+ Alanine, Table 17) | Max resp ΔF/F +Alanine (+ Alanine, Table 17) | EC50 [1] [µM] | Max resp % of ALa + IMP (+ IMP (0.2 mM), Table 17) | Thres + IMP (+ IMP (0.2 mM), Table 17) [mM] | Max resp ΔF/F +Alanine (+Alanine (20 mM), Table 18) | Thres +Alanine (+Alanine (20 mM), Table 18) [mM] | EC50 [2] [µM] | Max resp % of Ala +IMP (+IMP (0.2 mM), Table 18) | Max resp ΔF/F +IMP (+IMP (0.2 mM), Table 18) | EC50 [3] [µM] | EC50 [4] [µM] | EC50 [5] [µM] | EC50 [6] [µM] | EC50 [7] [µM] | also measured
CCC(CC)NC(=O)c1ccc(Br)o1 [5-bromo-N-(pentan-3-yl)furan-2-carboxamide] | 1 | 126.8 % of IMP | 1.575 | > 3000 | 149.6 % of ALa | 0.3 | 1.575 | 1 | > 3000 | 149.6 % of Ala | 1.8425 | > 1000 | > 1000 | > 1000 | > 3000 | > 3000 | –
COc1ccc(/C=C/C(=O)NC2CCCCC2C)cc1 (stereo not drawn) [(E)-3-(4-methoxyphenyl)-N-(2-methylcyclohexyl) acrylamide] | 3 | 63.2 % of IMP | 0.785 | > 10000 | 144.0 % of ALa | 0.3 | 0.785 | 3 | > 10000 | 144.0 % of Ala | 1.7725 | > 3000 | > 3000 | > 3000 | > 10000 | > 10000 | –
CCC(CC)NC(=O)/C=C/c1ccc(OC)cc1 [(E)-3-(4-methoxyphenyl)-N-(pentan-3-yl)acrylamide] | 0.148 | 64.1 % of IMP | 0.7 | – | 171.7 % of ALa | 0.0375 | 0.7 | 0.148 | 590 | 171.7 % of Ala | 1.443 | 150 | 80 | 150 | 450 | 450 | EC50: 80 ± 10 µM; EC50 (EC50 + Alanine + IMP, + Alanine (20 mM) + IMP (0.2 mM), Table 17): 80 µM; EC50 (EC50 - with IMP (0.2 mM), with 0.2 mM IMP): 150 ± 20 µM; EC50 (alone in buffer, read-out: EC50 - alone): 450 ± 10 µM; EC50 (read-out: EC50 + Alanine): 590 µM
COC(=O)C(NC(=O)/C=C/c1cccs1)C(C)C (stereo not drawn) [(E)-methyl 3-methyl-2-(3-(thiophen-2-yl)acrylamido)butanoate] | 10 | 9.5 % of IMP | 0.1175 | – | 59.9 % of ALa | 1 | 0.1175 | 10 | – | 59.9 % of Ala | 0.7375 | > 10000 | > 10000 | > 10000 | – | – | –
O=C(NCCc1ccccc1)C(=O)NCc1cccnc1 [N1-phenethyl-N2-(pyridin-3-ylmethyl)oxalamide] | 1 | 30.2 % of IMP | 0.3750 | > 1000 | 61.9 % of ALa | 0.1 | 0.3750 | 1 | > 1000 | 61.9 % of Ala | 0.7625 | > 300 | 200 | > 300 | > 1000 | > 1000 | –
CC1CCCC(NC(=O)c2ccc3c(c2)OCO3)C1C (stereo not drawn) [N-(2,3-dimethylcyclohexyl) benzo[d][1,3]dioxole-5-carboxamide] | 3 | 18.1 % of IMP | 0.225 | – | 95.4 % of ALa | 0.275 | 0.225 | 3 | > 3000 | 95.4 % of Ala | 1.175 | 1100 | 600 | 1100 | 2000 | 2000 | EC50 (read-out: EC50 + Alanine): > 3000 µM
COc1cc(C(=O)NC(C(N)=O)c2ccccc2)cc(Cl)c1OC (stereo not drawn) [N-(2-amino-2-oxo-1-phenylethyl)-3-chloro-4,5-dimethoxybenzamide] | – | – | – | – | 49.4 % of ALa | 0.17 | – | – | – | 49.4 % of Ala | 0.415 | 680 | 750 | 680 | – | – | activation of T1R1/T1R3 by the compound alone (in words): failed to activate T1R1/T1R3 alone
CCCC(CCC)C(=O)Nc1ccc2c(c1)OCO2 [N-(benzo[d][1,3]dioxol-5-yl)-2-propylpentanamide] | – | – | – | – | 108.0 % of ALa | 0.0675 | – | – | – | 108.0 % of Ala | 0.908 | 270 | 90 | 270 | 350 | 350 | activation of T1R1/T1R3 by the compound alone (in words): agonist of T1R1/T1R3 alone
